From patent US7595327B2, “Beta-sulfonamide hydroxamic acid inhibitors of tace/matrix metalloproteinase” (priority 2005, dated 2009)
Read-outs that look alike come from different tables or passages of the source.

Assays:
[1] = molecular target: T1, recombinant human MMP-2 (Homo sapiens, UniProt P08253); assay: In-vitro fluorescence assay of MMP-2 activity; format: biochemical
T1 sequence (P08253 110-660): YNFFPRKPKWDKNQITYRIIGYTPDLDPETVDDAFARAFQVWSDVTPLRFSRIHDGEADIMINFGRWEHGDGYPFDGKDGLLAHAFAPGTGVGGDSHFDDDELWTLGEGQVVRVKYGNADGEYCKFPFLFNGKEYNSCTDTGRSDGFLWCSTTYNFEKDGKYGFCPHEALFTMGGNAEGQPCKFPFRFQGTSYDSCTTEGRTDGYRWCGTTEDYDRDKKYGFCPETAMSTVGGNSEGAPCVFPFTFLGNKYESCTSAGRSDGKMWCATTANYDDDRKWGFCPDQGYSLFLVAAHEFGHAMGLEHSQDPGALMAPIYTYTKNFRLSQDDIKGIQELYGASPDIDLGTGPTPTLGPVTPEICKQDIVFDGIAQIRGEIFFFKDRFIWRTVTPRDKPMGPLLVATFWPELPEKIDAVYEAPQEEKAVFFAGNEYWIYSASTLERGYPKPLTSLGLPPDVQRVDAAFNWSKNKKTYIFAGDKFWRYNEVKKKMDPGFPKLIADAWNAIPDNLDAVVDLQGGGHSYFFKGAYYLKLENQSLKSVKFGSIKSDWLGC

[2] = molecular target: T2, TACE (catalytic domain of the recombinant TACE protein) (Homo sapiens, UniProt P78536); assay: TACE FRET assay using TACE Cat; format: biochemical; settings: FRET, pro-TNF-α substrate peptide; read-out: TACE IC50
T2 construct: The catalytic domain of the recombinant TACE protein was expressed and purified; made in house
T2 sequence (P78536 223-474 limits assumed): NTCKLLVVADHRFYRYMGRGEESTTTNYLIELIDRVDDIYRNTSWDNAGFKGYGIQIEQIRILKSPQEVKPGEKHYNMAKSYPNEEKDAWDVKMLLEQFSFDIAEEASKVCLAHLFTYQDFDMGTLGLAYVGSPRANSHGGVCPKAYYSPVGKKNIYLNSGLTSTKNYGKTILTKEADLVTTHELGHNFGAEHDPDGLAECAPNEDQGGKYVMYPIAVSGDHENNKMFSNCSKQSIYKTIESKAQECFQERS
How it was run: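 Recombinant TACE catalytic domain (1 ug/ml) pre-incubated 10 min at room temperature with inhibitor in 50 mM Tris-HCl pH 7.4, 25 mM NaCl, 4% glycerol, 0.005% Brij 35; Abz/Dpa pro-TNF-α peptide substrate added, fluorescence (Ex 320/Em 420) followed 10 min; IC50 from initial rates by Hill fit.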

[3] = molecular target: MMP-13 (Homo sapiens, UniProt P45452); assay: In-vitro fluorescence assay of MMP-13 activity; format: biochemical
Description: See Knight, C. […] […].
The method was essentially the same as for the determination of MMP-1 activity, described above, except that the final concentration of purified MMP in the assay was 0.5 nM, prepared by diluting with the assay buffer.

[4] = molecular target: T3, recombinant human catalytic domain of MMP-1 (Homo sapiens, UniProt P03956); assay: In-vitro fluorescence assay of MMP-1 activity; format: biochemical
T3 construct: The source of enzyme in the assay was the recombinant human catalytic domain of MMP-1
T3 sequence (P03956 100-269 limits assumed): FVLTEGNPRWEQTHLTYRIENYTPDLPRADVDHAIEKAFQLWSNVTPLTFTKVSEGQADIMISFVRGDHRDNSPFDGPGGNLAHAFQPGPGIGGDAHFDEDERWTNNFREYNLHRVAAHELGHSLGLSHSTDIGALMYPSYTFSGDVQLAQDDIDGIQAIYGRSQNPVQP

[5] = system: LPS-induced TNF-α secretion in human whole blood; assay: Human whole blood assay for LPS-induced TNF-α secretion; format: cell-based; settings: LPS 100 ng/ml, read-out: TNF Secretion HWB IC50
How it was run: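 Fresh blood from healthy volunteers pre-incubated 1 h at 37° C with compound (final DMSO <0.2%), then stimulated with 100 ng/ml LPS for 4 h or overnight at 37° C with rotation. Supernatant TNF-α measured by ELISA; percent inhibition and IC50 derived by curve fitting.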

[6] = system: TNF-α secretion in Raw 264.7 cells; assay: Cell-based assay for inhibition of TNF-α secretion in Raw cells; settings: Mus musculus, RAW264.7, LPS 100 ng/ml, 4 hr
How it was run: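 Confluent Raw 264.7 cells were seeded overnight, refed, and pre-incubated 1 hr with compound (0.2% final DMSO), then stimulated with LPS at 100 ng/ml final for 4 hr at 37° C. Supernatant TNF-α measured by ELISA; % inhibition and IC50 by curve fitting.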

[7] = molecular target: T4, recombinant human catalytic domain of MMP-14 (Homo sapiens, UniProt P50281); assay: In-vitro fluorescence assay of MMP-14 activity; format: biochemical
T4 construct: 20 kDa; purchased Chemicon International, Inc. CC1041
Description: The results were analyzed as described for MMP-13 activity, above.

IC50 [1] [nM] | IC50 [2] [nM] | IC50 [3] [nM] | IC50 [4] [nM] | IC50 ([5]; Homo sapiens) [nM] | IC50 [6] [nM] | IC50 [7] [nM] | IC50 [5] [nM] | Compound
> 16700 | < 0.6 | > 16700 | – | 5900 | 270 | – | – | Cc1cc(COc2ccc(S(=O)(=O)N[C@@H]3CCC[C@]3(C)C(=O)NO)cc2)c2ccccc2n1 [Example 55, (1S,2R)-N-hydroxy-1-methyl-2-[({4-[(2-methylquinolin4-yl)methoxy]phenyl}sulfonyl)amino]cyclopentanecarboxamide]
> 10000 | 2.3 | > 10000 | – | 48000 | > 1000 | – | – | CC[C@]1(C(=O)NO)CCC[C@H]1NS(=O)(=O)c1ccc(OCc2cc(C)nc3ccccc23)cc1 [Example 56, (1S,2R)-N-hydroxy-1-ethyl-2-[({4-[(2-methylquinolin-4-yl)methoxy]phenyl}sulfonyl)amino]cyclopentanecarboxamide]
> 10000 | 9.6 | > 10000 | – | > 50000 | > 1000 | – | – | CC[C@]1(C(=O)NO)CCC[C@H]1N(C)S(=O)(=O)c1ccc(OCc2cc(C)nc3ccccc23)cc1 [Example 57, (1S,2R)-N-hydroxy-1-ethyl-2-[methyl({4-[(2-methylquinolin-4-yl)methoxy]phenyl}sulfonyl)amino]cyclopentanecarboxamide]
> 10000 | 109 | > 10000 | – | 49000 | > 1000 | – | – | Cc1cc(COc2ccc(S(=O)(=O)N[C@@H]3CCNC[C@]3(O)C(=O)NO)cc2)c2ccccc2n1 [Example 59, (3R,4R)-N,3-dihydroxy-4-[({4-[(2-methylquinolin-4-yl)methoxy]phenyl}sulfonyl)amino]piperidine-3-carboxamide]

Continued, compound first:

Compound | IC50 [1] [nM] | IC50 [2] [nM] | IC50 [3] [nM] | IC50 [4] [nM] | IC50 ([5]; Homo sapiens) [nM] | IC50 [6] [nM] | IC50 [7] [nM] | IC50 [5] [nM]
Cc1cc(COc2ccc(S(=O)(=O)N[C@@H]3CN(C=O)CCC3C(=O)NO)cc2)c2ccccc2n1 (mixture of isomers) [Example 34, 1-Formyl-3-[4-(2-methyl-quinolin-4-ylmethoxy)-benzenesulfonylamino]-piperidine-4-carboxylic acid hydroxyamide] | > 16700 | 1 | > 16700 | > 16700 | 500 | 21 | – | –
CC(=O)N1CCC(C(=O)NO)C(NS(=O)(=O)c2ccc(OCc3cc(C)nc4ccccc34)cc2)C1 (mixture of isomers) [Example 36, 1-Acetyl-3-[4-(2-methyl-quinolin-4-ylmethoxy)-benzenesulfonylamino]-piperidine-4-carboxylic acid hydroxyamide] | > 16700 | 1.3 | > 16700 | > 16700 | 1000 | 202 | – | –
Cc1cc(COc2ccc(S(=O)(=O)N(C)[C@@H]3[C@H]4CC[C@H](C4)[C@@H]3C(=O)NO)cc2)c2ccccc2n1 (racemic) [Example 1, exo-N-Hydroxy-3-[methyl({4-[(2-methylquinolin-4-yl)methoxy]phenyl}sulfonyl)amino]bicyclo[2.2.1]heptane-2-carboxamide] | 6180 | 2 | – | – | 3000 | 18 | > 16700 | –
Cc1cc(COc2ccc(S(=O)(=O)N(C)[C@H]3[C@@H](C(=O)NO)[C@@H]4CC[C@H]3O4)cc2)c2ccccc2n1 (relative stereo) [Example 3, exo-N-Hydroxy-3-[methyl({4-[(2-methylquinolin-4-yl)methoxy]phenyl}sulfonyl)amino]-7-oxabicyclo[2.2.1]heptane-2-carboxamide] | 4120 | 1.1 | 3310 | > 16700 | 2200 | 10 | > 16700 | –
Cc1cc(COc2ccc(S(=O)(=O)N[C@@H]3[C@H]4CC[C@H](C4)[C@@H]3C(=O)NO)cc2)c2ccccc2n1 (relative stereo) [Example 4, exo-N-Hydroxy-3-[({4-[(2-methylquinolin-4-yl)methoxy]phenyl}sulfonyl)amino]bicyclo[2.2.1]heptane-2-carboxamide] | > 16700 | < 0.6 | 6380 | > 16700 | 1600 | 18 | > 16700 | –
Cc1cc(COc2ccc(S(=O)(=O)N(C)C3C4CCC(C4)C3C(=O)NO)cc2)c2ccccc2n1 (single isomer, unassigned) [Example 1a, exo-N-hydroxy-3-[methyl({4-[(2-methylquinolin-4-yl)methoxy]phenyl}sulfonyl)amino]bicyclo[2.2.1]heptane-2-carboxamide] | 4580 | 1.3 | > 16700 | > 16700 | – | – | > 16700 | 2800
Cc1cc(COc2ccc(S(=O)(=O)N(C)C3C4CCC(C4)C3C(=O)NO)cc2)c2ccccc2n1 (single isomer, unassigned) [Example 1b, exo-N-hydroxy-3-[methyl({4-[(2-methylquinolin-4-yl)methoxy]phenyl}sulfonyl)amino]bicyclo[2.2.1]heptane-2-carboxamide] | > 16700 | 43 | > 16700 | > 16700 | – | 250 | > 16700 | 14000
